Measurements as given in patent US20220280501A1, “USING GENO- OR P[…] ADJUST LSD DOSING” (Universitätsspital Basel, priority 2021, published 2022).
“Also recorded” adds a separate entry of the source. Like-named read-outs stand apart in the source and are kept apart here.

What was measured:
[1] = Acute subjective effects of LSD (VAS, 5D-ASC) by genotype, pooled phase 1 studies; type: in vivo, humans
Procedure: The Visual Analog Scales (VASs, FIG. 14, Table S5) were presented as 100 mm horizontal lines (0-100%), marked from “not at all” on the left to “extremely” on the right. Subjective effects like “closeness”, “talkative”, “open”, “concentration”, “speed of thinking”, and “trust” were bidirectional (±50 mm). The VASs were applied before and 0, 0.5, 1, 1.5, 2, 2.5, 3, 4, 5, 6, 7, 8, 9 and 10 h after LSD or placebo administration.
The 5 Dimensions of Altered States of Consciousness (5D-ASC) scale (Dittrich, 1998; Studerus et al., 2010) was administered at the end of the acute drug effects to retrospectively rate peak drug responses. The main subscales describing alterations of consciousness are Oceanic Boundlessness (OB), Anxious of Ego Dissolution (AED), Visionary Restructuralization (VR) (FIG. 16).

[2] = Autonomic (physiological) effects of LSD, pooled phase 1 studies; type: in vivo, humans
Procedure: Blood pressure, heart rate, and body temperature were assessed repeatedly before and 0, 0.5, 1, 1.5, 2, 2.5, 3, 4, 5, 6, 7, 8, 9, and 10 h after LSD or placebo administration. Systolic and diastolic blood pressure and heart rate were measured using an automatic oscillometric device (OMRON Healthcare Europe NA, Hoofddorp, Netherlands). The measurements were performed in duplicate at an interval of 1 minute and after a resting time of at least 5 minutes. The averages were calculated for the analysis. Mean arterial pressure (MAP) was calculated as diastolic blood pressure+(systolic blood pressure−diastolic blood pressure)/3. The rate pressure product (RPP) was calculated as systolic blood pressure×heart rate. Core (tympanic) temperature was measured using a Genius 2 ear thermometer (Tyco Healthcare Group LP, Watertown, N.Y., USA).

[3] = cited from earlier work; for duration of LSD effects (mean±SD) / duration of LSD effects (range): Dolder et al., 2017b
[4] = Holze et al., 2021b; cited from earlier work
[5] = cited from earlier work; for subjects with bad drug effects (50% or more on a 0-100% scale at any time point): Dolder et al., 2017a
[6] = human, Dolder et al., 2015; cited from earlier work
[7] = tested on: cytochrome P450 enzymes (CYPs); details: human liver microsomes; cited from earlier work
[8] = tested on: cytochrome P450 enzymes (CYPs); details: human liver S9 fraction; cited from earlier work
[9] = Pharmacokinetics of LSD by CYP genotype, pooled analysis of four phase 1 studies; details: for Cmax: human, oral, 100 ug, LSD Cmax, compartmental modeling, 100 μg LSD dose, mean±SD
[10] = non-compartmental analysis, plasma
[11] = non-functional vs functional CYP2D6

CCN(CC)C(=O)[C@@H]1C=C2c3cccc4[nH]cc(c34)C[C@H]2N(C)C1 [LSD, Lysergic acid diethylamide]
alterations of the mind (5D-ASC total, AED and VR subscales), CYP2D6 PMs compared with functional CYP2D6 subjects ([1]; 5D-ASC): significantly greater alterations of the mind | 5D-ASC total score and VR subscale, homozygous carriers of HTR1A rs6295 G allele vs carriers of a C allele ([1]; HTR1A rs6295): rated lower; also recorded: lower total 5D-ASC, Visionary Restructuralization, and Blissful State ratings | 5D-ASC total score and AED subscale, carriers of two HTR2A rs6313 A alleles vs G allele carriers ([1]; HTR2A rs6313): lower ratings; also recorded: lower alterations of the mind | duration of the acute subjective response, CYP2D6 PMs compared with functional CYP2D6 subjects ([1]; VAS any drug effect): substantially longer duration; also recorded: longer subjective effect durations | acute subjective effects compared to placebo ([1]; healthy subjects): significant acute subjective effects on all scales | vital parameters, effect of 5-HT receptor genotypes ([2]; HTR1A, HTR1B, HTR2A genotypes): not affected | blood pressure, heart rate, and body temperature compared to placebo ([2]; healthy subjects): moderately increased | effect of CYP2D6 genotype on the autonomic response ([2]; in vivo): no relevant effect | duration of LSD effects (mean±SD) ([3]; 100 μg): 8.2 ± 2.1 h | duration of LSD effects (range) ([3]; 100 μg): 5 to 14 h | duration of subjective effects (mean±SD) ([3]; 100 μg, Holze et al., 2019): 8.5 ± 2.0 h | duration of subjective effects (range) ([3]; 100 μg, Holze et al., 2019): 5.3 to 12.8 h | duration of LSD effects (mean±SD) ([3]; 200 μg): 11.6 ± 1.7 h | duration of LSD effects (range) ([3]; 200 μg): 7 to 19.5 h | 5D-ASC OB, AED and anxiety ratings, 200 μg compared to 100 μg [4]: did not result in higher OB ratings but increased AED and anxiety | subjects with bad drug effects (50% or more on a 0-100% scale at any time point) ([5]; 100 μg, 3 of 24 subjects): 12.5% | subjects with transient bad drug effects ([5]; 100 μg, 7 of 24 subjects, Holze et al., 2019a): 29% | subjects with bad drug effects (50% or more on a 0-100% scale at any time point) ([5]; 200 μg, 9 of 16 subjects): 56% | subjects with marked anxiety ([5]; 200 μg, sixteen healthy humans, Schmid et al., 2015): two | parent drug excreted in urine [6]: ~1% | CYPs contributing to the N-demethylation of LSD to 6-nor-LSD (Nor-LSD) [7]: CYP2D6, 3A4, and 2E1 | CYPs taking part in the formation of the main metabolite 2-oxo-3-hydroxy-LSD (O-H-LSD) [7]: CYP2C9, CYP1A2, CYP2E1, and CYP3A4 | CYPs contributing to the hydroxylation of LSD [8]: CYP1A2 and CYP3A4 | CYPs involved in the formation of Nor-LSD [8]: CYP2C19 and 3A4 | effect of genetic polymorphisms of other CYPs on pharmacokinetics or subjective or autonomic effects ([9]; CYP1A2, CYP2B6, CYP2C19, CYP2C9): no relevant effect | exposure to LSD with lower CYP2D6 activity across all CYP2D6 genotype activity score groups ([9]; CYP2D6 activity score groups): significantly higher exposure | effect of sex or body weight on pharmacokinetics / concentration of LSD in plasma ([9]; LSD AUC∞ z-score vs body weight): no relevant effect; also recorded: did not relevantly alter | Cmax ([9]; plasma, CYP2D6 PMs (non-functional, N=7)): 2.37 ± 0.891 ng/mL | Cmax ([9]; plasma, functional CYP2D6 subjects (N=74)): 2.06 ± 0.999 ng/mL | AUC∞ and AUC10 values, CYP2D6 PMs compared with functional CYP2D6 carriers [9, 10]: significantly larger | Cmax, effect of CYP2D6 function [9, 10]: not significantly affected | area under the curve blood plasma concentration (total drug exposure), higher in CYP2D6 poor metabolizers than in functional CYP2D6 carriers [9, 11]: approximately 75% | half-life (T1/2), CYP2D6 PMs compared with functional CYP2D6 subjects [9, 11]: longer | mean peak concentration, higher in CYP2D6 PMs than in functional CYP2D6 ([9]; non-functional vs functional CYP2D6, non-significant): approximately 15%

CCN(CC)C(=O)[C@@H]1C=C2c3cccc4c3C(O)(C[C@H]2N(C)C1)C(=O)N4 (stereo partly drawn) [O-H-LSD, 2-oxo-3-hydroxy LSD]
AUC∞ values, CYP2D6 PMs compared with functional CYP2D6 subjects ([9]; metabolite in plasma after LSD administration): larger | area under the curve blood plasma concentration (total drug exposure), higher in CYP2D6 poor metabolizers than in functional CYP2D6 carriers [9, 11]: approximately 75%
